Reference: PMC9110766, “Structure-Based Design of 2-Aminopurine Derivatives as CDK2 Inhibitors for Triple-Negative Breast Cancer” (Frontiers in Pharmacology, 2022)
Like-named read-outs stand apart in the source and are kept apart here.

Key:
CDK1/B = settings: cited from earlier work
CDK2/cyclin A = CDK2/cyclin A (Homo sapiens, UniProt P24941); test: CDK2 inhibition, Kinase-Glo Luminescent Kinase Assay; assay type: biochemical; settings: geometric means of n ⩾ 3 experiments; 10 µM ATP; read-out: IC50 against CDK2
Method: The IC50 values were calculated using Prism GraphPad software.

CDK2/A = settings: cited from earlier work
MDA-MB-231 cells [1] = test: Cell cycle analysis (PI staining, flow cytometry); assay type: cell-based, human; settings: 20 μM, 24 h, compared with negative control group
Method: MDA-MB-231 cells were seeded in six-well plates and incubated with 20 μM compounds 11c, 11l, 11p, and vehicle (0.2% DMSO) for 24 h. Subsequently, cells were centrifugated and washed with cold PBS buffer. After the centrifugation, the supernatants were removed, and the cells were resuspended in PBS buffer. Then, 10 μl of PI were added and the cells were incubated in the dark for 15 min at room temperature. The stained cells were analyzed by a flow cytometer (BD Accuri C6).

CDK6/cyclin D3 = CDK6/cyclin D3 (Homo sapiens, UniProt Q00534); test: CDK6 inhibition, Kinase-Glo Luminescent Kinase Assay; assay type: biochemical; settings: for selectivity for CDK2 over CDK6: ratio of IC50 values
Method: (§1) Experiments were carried out using the Kinase-Glo® Luminescent Kinase Assays as described previously ([Kashem et al., 2007]). Briefly, all enzymatic reactions were conducted at 30°C for 40 min. The 50 µl reaction mixture contains 40 mM Tris, pH 7.4, 10 mM MgCl2, 0.1 mg/ml BSA, 1 mM DTT, 10 µM ATP, 0.2 μg/ml CDKs, and 100 μM lipid substrate. The compounds were diluted with 10% DMSO and then 5 µl of the dilution was removed and put into the subsequent reaction. The kinase activities were measured by detecting the content of remaining ATP. The luminescent signal was correlated with the amount of residual ATP and negatively correlated with the amount of kinase activity. The IC50 values were calculated using Prism GraphPad software.

CDK1/cyclin B = CDK1/cyclin B (Homo sapiens, UniProt P06493); test: CDK1 inhibition, Kinase-Glo Luminescent Kinase Assay; assay type: biochemical; settings: for selectivity for CDK2 over CDK1: ratio of IC50 values
Method: as §1

MDA-MB-231 cells [2] = test: Anti-proliferation test (MTT); assay type: cell-based; settings: Homo sapiens, 48 h
CDK8/cyclin C = CDK8/cyclin C (Homo sapiens, UniProt P49336); test: CDK8 inhibition, Kinase-Glo Luminescent Kinase Assay; assay type: biochemical; settings: for selectivity for CDK2 over CDK8: CDK8 inhibition <20% @ 5 μM; for CDK8/cyclin C Inhibition rate @5 μM (%) / inhibition at 5 µM: compound at 5 μM; for inhibition at 5 µM: read-out: CDK8/cyclin C Inhibition rate @5 μM (%)
Method: as §1

[3] = Cytotoxicity (MTT) in human embryonic kidney cells; assay type: cell-based; settings: 293T cells
Method: Standard MTT (thiazolyl blue; 3-[4,5-dimethylthiazol-2-yl]-2,5-diphenyltetrazolium bromide) assays were performed as 5 mg/ml. Briefly, MDA-MB-231 or 293T cells were seeded into 96-well plates and incubated for 24 h at 37°C. All compounds were dissolved in DMSO, and a gradient dilution series were prepared in 100 μl of cell medium, added to cells (in triplicates), and incubated for 48 h at 37°C with 5% CO2. MTT was added (5 mg/ml, 20 μl) to each plate and these mixtures were incubated for another 4 h. Then, the medium was removed, and the mixture was completely dissolved in DMSO (200 μL) after shaking for 10 min.

CDK4/D3 = tested on: CDK4/D3; set-up: method as in Fry et al., 2004; settings: ref Fry et al., 2004; cited from earlier work
CDK6/D2 = tested on: CDK6/D2; set-up: method as in Fry et al., 2004; settings: ref Fry et al., 2004; cited from earlier work
CDK4/D1 = tested on: CDK4/D1; set-up: method as in Fry et al., 2004; settings: ref Fry et al., 2004; cited from earlier work

Chain of CDK1/cyclin B (P06493 whole entry): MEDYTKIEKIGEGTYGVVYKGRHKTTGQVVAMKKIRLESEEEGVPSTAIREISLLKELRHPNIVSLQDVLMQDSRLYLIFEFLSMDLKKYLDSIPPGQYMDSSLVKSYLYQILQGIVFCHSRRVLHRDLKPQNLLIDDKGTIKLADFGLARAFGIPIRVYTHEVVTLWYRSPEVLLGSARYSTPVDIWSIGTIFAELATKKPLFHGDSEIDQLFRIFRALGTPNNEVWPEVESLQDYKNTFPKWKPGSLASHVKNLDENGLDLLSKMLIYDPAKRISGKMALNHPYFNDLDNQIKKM
Chain of CDK1/cyclin B (P14635 whole entry partner): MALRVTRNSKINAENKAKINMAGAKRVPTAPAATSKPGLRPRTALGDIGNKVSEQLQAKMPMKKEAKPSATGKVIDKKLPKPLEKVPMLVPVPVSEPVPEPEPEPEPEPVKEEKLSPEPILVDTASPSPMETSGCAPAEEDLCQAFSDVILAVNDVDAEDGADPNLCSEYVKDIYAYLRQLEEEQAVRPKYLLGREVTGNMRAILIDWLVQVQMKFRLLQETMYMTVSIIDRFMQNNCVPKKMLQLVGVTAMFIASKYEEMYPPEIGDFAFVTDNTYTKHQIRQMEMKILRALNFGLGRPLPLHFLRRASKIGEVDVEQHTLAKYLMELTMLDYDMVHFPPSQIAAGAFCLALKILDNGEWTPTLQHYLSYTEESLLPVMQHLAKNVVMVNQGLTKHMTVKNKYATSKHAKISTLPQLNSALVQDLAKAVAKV
Chain of CDK6/cyclin D3 (Q00534 whole entry): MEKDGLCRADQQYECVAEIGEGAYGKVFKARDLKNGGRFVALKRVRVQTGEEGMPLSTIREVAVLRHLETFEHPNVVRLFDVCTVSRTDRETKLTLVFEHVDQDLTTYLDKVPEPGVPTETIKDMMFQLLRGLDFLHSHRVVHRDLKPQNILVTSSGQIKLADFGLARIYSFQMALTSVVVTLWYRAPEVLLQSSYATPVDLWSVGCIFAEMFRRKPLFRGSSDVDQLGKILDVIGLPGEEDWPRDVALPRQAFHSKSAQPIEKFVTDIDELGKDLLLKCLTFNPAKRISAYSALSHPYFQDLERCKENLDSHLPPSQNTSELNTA
Chain of CDK6/cyclin D3 (P30281 whole entry partner): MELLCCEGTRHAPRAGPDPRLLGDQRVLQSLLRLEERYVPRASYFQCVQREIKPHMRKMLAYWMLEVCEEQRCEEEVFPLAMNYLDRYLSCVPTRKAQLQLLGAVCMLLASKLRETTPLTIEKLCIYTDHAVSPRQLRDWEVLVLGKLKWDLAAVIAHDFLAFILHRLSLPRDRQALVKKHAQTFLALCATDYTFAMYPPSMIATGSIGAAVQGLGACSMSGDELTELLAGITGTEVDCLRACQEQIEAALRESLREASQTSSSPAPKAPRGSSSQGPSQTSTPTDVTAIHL
Chain of CDK8/cyclin C (P49336 whole entry): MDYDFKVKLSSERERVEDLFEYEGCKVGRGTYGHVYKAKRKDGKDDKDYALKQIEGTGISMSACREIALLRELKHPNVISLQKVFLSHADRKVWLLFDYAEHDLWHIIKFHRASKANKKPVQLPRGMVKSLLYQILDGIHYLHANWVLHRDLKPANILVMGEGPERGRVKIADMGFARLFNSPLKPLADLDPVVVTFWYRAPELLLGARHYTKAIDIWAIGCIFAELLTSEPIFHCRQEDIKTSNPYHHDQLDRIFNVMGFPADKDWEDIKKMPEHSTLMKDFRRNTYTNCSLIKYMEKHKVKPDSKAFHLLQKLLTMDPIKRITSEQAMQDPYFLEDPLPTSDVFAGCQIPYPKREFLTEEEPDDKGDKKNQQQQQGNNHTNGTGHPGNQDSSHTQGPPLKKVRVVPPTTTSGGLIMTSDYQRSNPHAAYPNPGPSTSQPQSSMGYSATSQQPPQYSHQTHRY
Chain of CDK8/cyclin C (P24863 whole entry partner): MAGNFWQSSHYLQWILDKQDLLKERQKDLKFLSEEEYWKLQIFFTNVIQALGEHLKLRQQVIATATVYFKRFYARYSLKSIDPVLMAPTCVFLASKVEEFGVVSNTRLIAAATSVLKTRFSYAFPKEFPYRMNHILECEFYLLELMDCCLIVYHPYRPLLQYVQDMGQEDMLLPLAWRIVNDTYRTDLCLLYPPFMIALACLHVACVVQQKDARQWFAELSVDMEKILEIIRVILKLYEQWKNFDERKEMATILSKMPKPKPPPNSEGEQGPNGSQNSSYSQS

Row | melting point [°C] | IC50 (CDK2/cyclin A) [nM] | IC50 (CDK6/cyclin D3) [nM] | selectivity for CDK2 over CDK6 (CDK6/cyclin D3) | IC50 (CDK1/cyclin B) [nM] | selectivity for CDK2 over CDK1 (CDK1/cyclin B) [fold] | IC50 (MDA-MB-231 cells [2]) [nM] | selectivity for CDK2 over CDK8 (CDK8/cyclin C) | CDK8/cyclin C Inhibition rate @5 μM (%) (CDK8/cyclin C) | inhibition at 5 µM (CDK8/cyclin C) [%] | SMILES | IC50 (CDK1/B; ref Wang et al., 2013) [nM] | IC50 (CDK2/A; ref Wang et al., 2013) [nM] | effect on cell cycle (percentage of cells in G2/M phase) (MDA-MB-231 cells [1]) | IC50 at 48 h [3] [nM] | IC50 (CDK4/D3) [nM] | IC50 (CDK6/D2) [nM] | IC50 (CDK4/D1) [nM] | IC50 (CDK1/B; ref Coxon et al., 2017) [nM] | IC50 (CDK2/A; ref Coxon et al., 2017) [nM]
1 | > 300 | 310 ± 20 | – | – | – | – | – | – | – | – | Cl.Nc1cccc(-c2nc(Nc3cccc([N+](=O)[O-])c3)nc3[nH]cnc23)c1 [Compound 11a, 6-(3-aminophenyl)-N-(3-nitrophenyl)-9H-purin-2-amine hydrochloride] | 350 | 23 | – | – | – | – | – | – | –
2 | 236 to 238 | 110 ± 10 | 2200 ± 100 | 18 fold | 240 ± 40 | 2 | 8110 to 15700 | more than 42 fold | 19 | < 20 | Cl.NCc1cccc(-c2nc(Nc3cccc([N+](=O)[O-])c3)nc3[nH]cnc23)c1 [Compound 11c, 6-(3-(aminomethyl)phenyl)-N-(3-nitrophenyl)-9H-purin-2-amine hydrochloride] | – | – | increased the percentage of cells in the G2/M phase | – | – | – | – | – | –
3 | – | 19 ± 1 | 2700 ± 500 | more than 140 fold | 120 ± 20 | 4.6 to 6.3 | 8110 to 15700 | more than 140 fold | 11 | < 20 | Cl.NCc1cccc(-c2nc(Nc3ccc(S(N)(=O)=O)cc3)nc3[nH]cnc23)c1 [Compound 11l, 4-((6-(3-(aminomethyl)phenyl)-9H-purin-2-yl)amino)benzenesulfonamide hydrochloride] | – | – | increased the percentage of cells in the G2/M phase | > 100000 | – | – | – | – | –
4 | > 300 | 32 ± 1 | 4800 ± 100 | more than 140 fold | 150 ± 20 | 4.6 to 6.3 | 8110 to 15700 | more than 140 fold | 15 | < 20 | CNS(=O)(=O)c1ccc(Nc2nc(-c3cccc(CN)c3)c3nc[nH]c3n2)cc1.Cl [Compound 11p, 4-((6-(3-(aminomethyl)phenyl)-9H-purin-2-yl)amino)-N-methylbenzenesulfonamide hydrochloride] | – | – | increased the percentage of cells in the G2/M phase | – | – | – | – | – | –
5 | – | – | – | – | – | – | – | – | – | – | CC(=O)c1c(C)c2cnc(Nc3ccc(N4CCNCC4)cn3)nc2n(C2CCCC2)c1=O [Palbociclib] | – | – | – | – | […] | 15 | […] | – | –
6 | – | – | – | – | – | – | – | – | – | – | NS(=O)(=O)c1ccc(Nc2nc(-c3cccc(-c4ccccc4)c3)c3nc[nH]c3n2)cc1 [compound 73, reference compound] | – | – | – | – | – | – | – | 86000 | 44
